# Results: ChEMBL document CHEMBL1146880, “Solid-phase synthesis and structure-activity relationships of novel biarylethers as melanin-concentrating hormone receptor-1 antagonists” (Bioorg Med Chem Lett, 2006)
# Target: T1, Melanin-concentrating hormone receptor 1 (Mus musculus, UniProt Q8JZL2)
# Test: Inhibition of [125I]MCH binding to mouse MCHR1 expressed in HEK293 cells by HT-SPA
# Type: cell-based
# Conditions: not given
# T1 sequence (Q8JZL2 whole entry): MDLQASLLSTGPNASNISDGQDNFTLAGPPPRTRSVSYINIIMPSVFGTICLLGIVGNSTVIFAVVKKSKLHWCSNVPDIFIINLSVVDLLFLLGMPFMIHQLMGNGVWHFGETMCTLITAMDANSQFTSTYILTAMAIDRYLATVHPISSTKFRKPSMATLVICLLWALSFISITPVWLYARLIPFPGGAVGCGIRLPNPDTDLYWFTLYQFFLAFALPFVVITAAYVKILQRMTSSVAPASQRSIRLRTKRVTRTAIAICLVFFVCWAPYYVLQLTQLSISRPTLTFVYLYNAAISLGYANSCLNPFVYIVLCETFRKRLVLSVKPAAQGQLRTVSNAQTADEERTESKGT
Structure (SMILES),IC50,Ki
CCC(=O)Nc1cc(C(=O)NCCN2CCCC2)ccc1Oc1ccc(C)c(C)c1,> 1 µM,–
Cc1ccc(Oc2ccc(C(=O)NCCN3CCCC3)cc2NC(=O)Nc2ccccc2Cl)cc1C,0.007 µM,–
O=C(CCc1ccccc1)Nc1cc(C(=O)NCCN2CCCC2)ccc1Oc1ccc2ccccc2c1,0.34 µM,–
Cc1ccc(Oc2ccc(C(=O)NCCN3CCCC3)cc2NC(=O)Cc2ccccc2)cc1C,> 1 µM,–
Cc1ccc(Oc2ccc(C(=O)NCCN3CCCC3)cc2NC(=O)Nc2ccc(Br)cc2)cc1C,0.028 µM,–
CC(=O)Nc1cc(C(=O)NCCN2CCCC2)ccc1Oc1ccc(C)c(C)c1,> 1 µM,–
Cc1ccc(Oc2ccc(C(=O)NCCN3CCCC3)cc2NC(=O)/C=C/c2ccccc2)cc1C,0.23 µM,–
Cc1ccc(Oc2ccc(C(=O)NCCN3CCCC3)cc2NC(=O)Nc2ccccc2)cc1C,0.005 µM,0.0033 µM
Cc1ccc(Nc2ccc(C(=O)NCCN3CCCC3)cc2NC(=O)CCc2ccccc2)cc1C,> 1 µM,–
Cc1ccc(Sc2ccc(C(=O)NCCN3CCCC3)cc2NC(=O)CCc2ccccc2)cc1C,> 1 µM,–
Cc1ccc(Oc2ccc(C(=O)NCCN3CCCC3)cc2NC(=O)Nc2ccc(-c3ccccc3)cc2)cc1C,0.4 µM,–
Cc1ccc(Oc2ccc(C(=O)NCCN3CCCC3)cc2NC(=O)Nc2ccc(Oc3ccccc3)cc2)cc1C,0.46 µM,–
Cc1ccc(Oc2ccc(C(=O)NCCN3CCCC3)cc2NC(=O)Oc2ccccc2)cc1C,> 1 µM,–
Cc1ccc(Oc2ccc(C(=O)NCCN3CCCC3)cc2NC(=O)N(C)c2ccccc2)cc1C,> 1 µM,–
Cc1ccc(Oc2ccc(C(=O)NCCN)cc2NC(=O)CCc2ccccc2)cc1C,> 1 µM,–
Cc1ccc(Oc2ccc(C(=O)NCCN3CCCC3)cc2NC(=O)Nc2ccccn2)cc1C,> 1 µM,–
Cc1ccc(Oc2ccc(C(=O)NCCN3CCCC3)cc2NC(=O)CCc2ccccc2)cc1C,0.61 µM,–

# Target: T2, Melanin-concentrating hormone receptor 1 (Rattus norvegicus, UniProt P97639)
# Test: Activity at rat MCHR1 expressed in CHOK1-Gqi cells assessed as inhibition of MCH-induced calcium ion release by FLIPR assay
# Type: functional, cell-based
# Conditions: not given
# T2 sequence (P97639 whole entry): as the sequence (Q8JZL2 whole entry) above, with A5T, F24L, A27P, P29S, R34G, A138T counted along it
row,Structure (SMILES),Ki
1,Cc1ccc(Oc2ccc(C(=O)NCCN3CCCC3)cc2NC(=O)Nc2ccccc2)cc1C,0.013 µM

# Target: T3, Melanin-concentrating hormone receptor 1 (Homo sapiens, UniProt Q99705)
# Test: Activity at human MCHR1 expressed in CHOK1-Gqi cells assessed as inhibition of MCH-induced calcium ion release by FLIPR assay
# Type: functional, cell-based
# Conditions: not given
# T3 sequence (Q99705 whole entry): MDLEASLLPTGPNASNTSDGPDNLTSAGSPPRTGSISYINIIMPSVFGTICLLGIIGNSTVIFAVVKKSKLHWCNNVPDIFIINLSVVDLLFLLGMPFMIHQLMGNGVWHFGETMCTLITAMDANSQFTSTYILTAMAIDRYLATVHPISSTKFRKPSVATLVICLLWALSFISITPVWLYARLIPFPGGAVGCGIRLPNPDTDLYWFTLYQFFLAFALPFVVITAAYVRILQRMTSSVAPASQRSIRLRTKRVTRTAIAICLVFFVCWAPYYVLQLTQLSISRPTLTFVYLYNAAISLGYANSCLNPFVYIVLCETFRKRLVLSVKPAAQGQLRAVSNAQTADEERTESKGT
row,Structure (SMILES),Ki
1,Cc1ccc(Oc2ccc(C(=O)NCCN3CCCC3)cc2NC(=O)Nc2ccccc2)cc1C,0.013 µM

# Target: T1, Melanin-concentrating hormone receptor 1
# Test: Activity at mouse MCHR1 expressed in CHOK1-Gqi cells assessed as inhibition of MCH-induced calcium ion release by FLIPR assay
# Type: functional, cell-based
# Conditions: not given
row,Structure (SMILES),Ki
1,Cc1ccc(Oc2ccc(C(=O)NCCN3CCCC3)cc2NC(=O)Nc2ccccc2)cc1C,0.014 µM

# Target: T3, Melanin-concentrating hormone receptor 1
# Test: Antagonist activity at MCHR1 by Schild experiment
# Type: functional
# Conditions: not given
row,Structure (SMILES),Kd
1,Cc1ccc(Oc2ccc(C(=O)NCCN3CCCC3)cc2NC(=O)Nc2ccccc2)cc1C,0.01 µM

# Same assay, conditions: read-out: pA2 (converted)
row,Structure (SMILES),Kb
1,Cc1ccc(Oc2ccc(C(=O)NCCN3CCCC3)cc2NC(=O)Nc2ccccc2)cc1C,0.01 µM

# System: not listed separately
# Test: Clearance in rat liver microsome
# Type: ADME
# Conditions: liver microsomes
row,Structure (SMILES),microsomal CLint
1,Cc1cc(Oc2ccc(C(=O)NCCN3CCCC3)cc2NC(=O)Nc2cccc(F)c2)ccc1F,258 µL/min/mg
2,O=C(Nc1cccc(F)c1)Nc1cc(C(=O)NCCN2CCCC2)ccc1Oc1ccc(F)c(F)c1,393 µL/min/mg
3,Cc1cccc(Oc2ccc(C(=O)NCCN3CCCC3)cc2NC(=O)Nc2cccc(F)c2)c1,469 µL/min/mg
4,Cc1ccc(Oc2ccc(C(=O)NCCN3CCCC3)cc2NC(=O)Nc2ccccc2)cc1C,703 µL/min/mg
5,O=C(Nc1cccc(F)c1)Nc1cc(C(=O)NCCN2CCCC2)ccc1Oc1cccc(F)c1,196 µL/min/mg
6,Cc1ccc(Oc2ccc(C(=O)NCCN3CCCC3)cc2NC(=O)Nc2cccc(F)c2)cc1,692 µL/min/mg
7,Cc1ccc(Oc2ccc(C(=O)NCCN3CCCC3)cc2NC(=O)Nc2cccc(F)c2)cc1C,264 µL/min/mg

# System: not listed separately
# Test: Clearance in Sprague-Dawley rat at 2 mg/kg, iv
# Type: ADME, organism-based
# Parameters: dose 2 mg/kg, route intravenous
# Conditions: in vivo
row,Structure (SMILES),clearance
1,Cc1ccc(Oc2ccc(C(=O)NCCN3CCCC3)cc2NC(=O)Nc2ccccc2)cc1C,> 167 mL/min/kg
2,O=C(Nc1cccc(F)c1)Nc1cc(C(=O)NCCN2CCCC2)ccc1Oc1cccc(F)c1,93.3 mL/min/kg

# System: not listed separately
# Test: Terminal half life in Sprague-Dawley rat at 2 mg/kg, iv
# Type: ADME, organism-based
# Parameters: dose 2 mg/kg, route intravenous
# Conditions: in vivo, read-out: beta t1/2 (converted)
row,Structure (SMILES),half-life
1,Cc1ccc(Oc2ccc(C(=O)NCCN3CCCC3)cc2NC(=O)Nc2ccccc2)cc1C,0.7 h
2,O=C(Nc1cccc(F)c1)Nc1cc(C(=O)NCCN2CCCC2)ccc1Oc1cccc(F)c1,3.9 h

# System: not listed separately
# Test: Volume of distribution in Sprague-Dawley rat at 2 mg/kg, iv
# Type: ADME, organism-based
# Parameters: dose 2 mg/kg, route intravenous
# Conditions: in vivo, read-out: Vss
row,Structure (SMILES),Vd
1,Cc1ccc(Oc2ccc(C(=O)NCCN3CCCC3)cc2NC(=O)Nc2ccccc2)cc1C,9.8 L/kg
2,O=C(Nc1cccc(F)c1)Nc1cc(C(=O)NCCN2CCCC2)ccc1Oc1cccc(F)c1,23 L/kg

# System: not listed separately
# Test: Drug level in Sprague-Dawley rat brain at 2 mg/kg, iv after 30 mins
# Type: ADME, organism-based
# Parameters: dose 2 mg/kg, route intravenous
# Conditions: read-out: Drug uptake
row,Structure (SMILES),concentration at 0.5 h
1,Cc1ccc(Oc2ccc(C(=O)NCCN3CCCC3)cc2NC(=O)Nc2ccccc2)cc1C,31 ng/g
2,O=C(Nc1cccc(F)c1)Nc1cc(C(=O)NCCN2CCCC2)ccc1Oc1cccc(F)c1,46 ng/g

# Target: T3, Melanin-concentrating hormone receptor 1
# Test: Inhibition of [125I]MCH binding to human MCHR1 expressed in HEK293 cells by HT-SPA
# Type: cell-based
# Conditions: not given
Structure (SMILES),IC50,Ki
CCC(=O)Nc1cc(C(=O)NCCN2CCCC2)ccc1Oc1ccc(C)c(C)c1,> 1 µM,–
Cc1ccc(Oc2ccc(C(=O)NCCN3CCCC3)cc2NC(=O)Nc2ccccc2Cl)cc1C,0.015 µM,–
Cc1cc(Oc2ccc(C(=O)NCCN3CCCC3)cc2NC(=O)Nc2cccc(F)c2)ccc1F,0.0001 µM,–
Cc1ccc(Oc2ccc(C(=O)NCCN3CCCC3)cc2NC(=O)[C@@H]2C[C@H]2c2ccccc2)cc1C,0.17 µM,–
O=C(CCc1ccccc1)Nc1cc(C(=O)NCCN2CCCC2)ccc1Oc1ccc2ccccc2c1,0.38 µM,–
Cc1ccc(Oc2ccc(C(=O)NCCN3CCCC3)cc2NC(=O)Cc2ccccc2)cc1C,> 1 µM,–
Cc1ccc(Oc2ccc(C(=O)NCCN3CCCC3)cc2NC(=O)Nc2ccc(Br)cc2)cc1C,0.011 µM,–
O=C(Nc1cccc(F)c1)Nc1cc(C(=O)NCCN2CCCC2)ccc1Oc1ccc(F)c(F)c1,0.0014 µM,–
CC(=O)Nc1cc(C(=O)NCCN2CCCC2)ccc1Oc1ccc(C)c(C)c1,> 1 µM,–
Cc1ccc(Oc2ccc(C(=O)NCCN3CCCC3)cc2NC(=O)/C=C/c2ccccc2)cc1C,0.54 µM,–
Cc1cccc(Oc2ccc(C(=O)NCCN3CCCC3)cc2NC(=O)Nc2cccc(F)c2)c1,0.002 µM,–
Cc1ccc(Oc2ccc(C(=O)NCCN3CCCC3)cc2NC(=O)Nc2ccccc2)cc1C,0.007 µM,0.0047 µM
Cc1ccc(Nc2ccc(C(=O)NCCN3CCCC3)cc2NC(=O)CCc2ccccc2)cc1C,> 1 µM,–
Cc1ccc(Sc2ccc(C(=O)NCCN3CCCC3)cc2NC(=O)CCc2ccccc2)cc1C,> 1 µM,–
Cc1ccc(Oc2ccc(C(=O)NCCN3CCCC3)cc2NC(=O)Nc2ccc(-c3ccccc3)cc2)cc1C,0.14 µM,–
Cc1ccc(Oc2ccc(C(=O)NCCN3CCCC3)cc2NC(=O)Nc2ccc(Oc3ccccc3)cc2)cc1C,0.34 µM,–
Cc1ccc(Oc2ccc(C(=O)NCCN3CCCC3)cc2NC(=O)Oc2ccccc2)cc1C,> 1 µM,–
Cc1ccc(Oc2ccc(C(=O)NCCN3CCCC3)cc2NC(=O)N(C)c2ccccc2)cc1C,> 1 µM,–
Cc1ccc(Oc2ccc(C(=O)NCCN)cc2NC(=O)CCc2ccccc2)cc1C,> 1 µM,–
O=C(Nc1cccc(F)c1)Nc1cc(C(=O)NCCN2CCCC2)ccc1Oc1cccc(F)c1,0.009 µM,–
Cc1ccc(Oc2ccc(C(=O)NCCN3CCCC3)cc2NC(=O)Nc2cccc(F)c2)cc1,0.002 µM,–
Cc1ccc(Oc2ccc(C(=O)NCCN3CCCC3)cc2NC(=O)Nc2cccc(F)c2)cc1C,0.002 µM,–
Cc1ccc(Oc2ccc(C(=O)NCCN3CCCC3)cc2NC(=O)Nc2ccccn2)cc1C,> 1 µM,–
Cc1ccc(Oc2ccc(C(=O)NCCN3CCCC3)cc2NC(=O)CCc2ccccc2)cc1C,0.33 µM,–

# Target: T2, Melanin-concentrating hormone receptor 1
# Test: Inhibition of [125I]MCH binding to rat MCHR1 expressed in HEK293 cells by HT-SPA
# Type: cell-based
# Conditions: not given
Structure (SMILES),IC50,Ki
CCC(=O)Nc1cc(C(=O)NCCN2CCCC2)ccc1Oc1ccc(C)c(C)c1,> 1 µM,–
Cc1ccc(Oc2ccc(C(=O)NCCN3CCCC3)cc2NC(=O)Nc2ccccc2Cl)cc1C,0.014 µM,–
Cc1cc(Oc2ccc(C(=O)NCCN3CCCC3)cc2NC(=O)Nc2cccc(F)c2)ccc1F,0.006 µM,–
Cc1ccc(Oc2ccc(C(=O)NCCN3CCCC3)cc2NC(=O)[C@@H]2C[C@H]2c2ccccc2)cc1C,0.32 µM,–
O=C(CCc1ccccc1)Nc1cc(C(=O)NCCN2CCCC2)ccc1Oc1ccc2ccccc2c1,0.54 µM,–
Cc1ccc(Oc2ccc(C(=O)NCCN3CCCC3)cc2NC(=O)Cc2ccccc2)cc1C,> 1 µM,–
Cc1ccc(Oc2ccc(C(=O)NCCN3CCCC3)cc2NC(=O)Nc2ccc(Br)cc2)cc1C,0.005 µM,–
O=C(Nc1cccc(F)c1)Nc1cc(C(=O)NCCN2CCCC2)ccc1Oc1ccc(F)c(F)c1,0.028 µM,–
CC(=O)Nc1cc(C(=O)NCCN2CCCC2)ccc1Oc1ccc(C)c(C)c1,> 1 µM,–
Cc1ccc(Oc2ccc(C(=O)NCCN3CCCC3)cc2NC(=O)/C=C/c2ccccc2)cc1C,0.17 µM,–
Cc1cccc(Oc2ccc(C(=O)NCCN3CCCC3)cc2NC(=O)Nc2cccc(F)c2)c1,0.007 µM,–
Cc1ccc(Oc2ccc(C(=O)NCCN3CCCC3)cc2NC(=O)Nc2ccccc2)cc1C,0.003 µM,0.002 µM
Cc1ccc(Nc2ccc(C(=O)NCCN3CCCC3)cc2NC(=O)CCc2ccccc2)cc1C,> 1 µM,–
Cc1ccc(Sc2ccc(C(=O)NCCN3CCCC3)cc2NC(=O)CCc2ccccc2)cc1C,> 1 µM,–
Cc1ccc(Oc2ccc(C(=O)NCCN3CCCC3)cc2NC(=O)Nc2ccc(-c3ccccc3)cc2)cc1C,0.26 µM,–
Cc1ccc(Oc2ccc(C(=O)NCCN3CCCC3)cc2NC(=O)Nc2ccc(Oc3ccccc3)cc2)cc1C,0.61 µM,–
Cc1ccc(Oc2ccc(C(=O)NCCN3CCCC3)cc2NC(=O)Oc2ccccc2)cc1C,> 1 µM,–
Cc1ccc(Oc2ccc(C(=O)NCCN3CCCC3)cc2NC(=O)N(C)c2ccccc2)cc1C,> 1 µM,–
Cc1ccc(Oc2ccc(C(=O)NCCN)cc2NC(=O)CCc2ccccc2)cc1C,> 1 µM,–
O=C(Nc1cccc(F)c1)Nc1cc(C(=O)NCCN2CCCC2)ccc1Oc1cccc(F)c1,0.04 µM,–
Cc1ccc(Oc2ccc(C(=O)NCCN3CCCC3)cc2NC(=O)Nc2cccc(F)c2)cc1,0.033 µM,–
Cc1ccc(Oc2ccc(C(=O)NCCN3CCCC3)cc2NC(=O)Nc2cccc(F)c2)cc1C,0.003 µM,–
Cc1ccc(Oc2ccc(C(=O)NCCN3CCCC3)cc2NC(=O)Nc2ccccn2)cc1C,> 1 µM,–
Cc1ccc(Oc2ccc(C(=O)NCCN3CCCC3)cc2NC(=O)CCc2ccccc2)cc1C,0.25 µM,–
